Measurements taken from patent publication US20240245743A1, “USE OF CINNAMOMUM ZEYLANICUM ESSENTIAL OIL (EO) AS HUMAN MELANOMA CELLS DEATH INDUCER AND AS POSSIBLE ADJUVANT IN PHARMACOLOGICAL THERAPIES” (CONSIGLIO NAZIONALE DELLE RICERCHE, priority 2021, published 2024).

How the values were obtained:
[1] = features known in the art; cited from earlier work
M14 cells [2] = experiment: Intracellular ROS analysis by FACS (H2DCF-DA); format: cell-based, human; conditions: EO 10 μg/ml for 24 hours; H2O2 5 mM
Protocol: The generation of ROS species (reactive oxygen species) was analysed by FACS, using the probe sensitive to the oxidant 2 ‘, 7’-dichlorodihydrofluorescein (H2DCF-DA). The C. zeylanicum EO was administered at a dose of 10 μg/ml for 24 hours. […] H2O2 at a concentration of 5 mM was used as a control for the generation of ROS.

[3] = rats; cited from earlier work
M14 cells [4] = experiment: Colony formation assay; format: cell-based, human
Protocol: Ten days after seeding, a solution of 2% methylene blue in 95% ethanol was added to the obtained monolayer and incubated for at least 30 minutes. The plates were then washed with ddH2O and the colonies (at least 50 cells) were counted. The results were expressed as a percentage of colonies formed with respect to the number of cells seeded. Cell survival rate was calculated as % compared to control cells.

melanoma = conditions: phase III study; cited from earlier work
[5] = test system: advanced melanoma, untreated brain metastases, and other solid tumours; conditions: phase I study; cited from earlier work

Which “toxicity (liver, kidney) / general safety” value [1] does the source give for `O=c1ccc2ccccc2o1` [Coumarin] here?
The value was “can cause liver and kidney damage”.

For `OO` [H2O2, hydrogen peroxide], which “oxidative stress (intracellular ROS) in M14 cells compared with PBMCs” value (M14 cells [2]) is on record?
Its value is “greater oxidative stress”.

With `C=CCc1ccc2c(c1)OCO2` [Safrole] as the molecule, how does the carcinogenicity [3] read?
The carcinogenicity was “weak carcinogenicity”.

For `CC/C(=C(\c1ccccc1)c1ccc(OCCN(C)C)cc1)c1ccccc1` [TAM, Tamoxifen], which “survival of M14 cells compared to control” value (M14 cells [4]; EO 10 μg/ml, TAM 0, 1 μM, 24 hours) is on record?
Its value is “no significant differences in survival compared to control”.

For `CC(=O)O[C@H]1C(=O)[C@@]2(C)[C@H]([C@H](OC(=O)c3ccccc3)[C@]3(O)C[C@H](OC(=O)[C@H](O)[C@@H](NC(=O)c4ccccc4)c4ccccc4)C(C)=C1C3(C)C)[C@]1(OC(C)=O)CO[C@@H]1C[C@@H]2O` [Taxol, Paclitaxel], which “induction of cell death in M14 cells” value (M14 cells [4]; 24 hours treatment, EO 10 μg/ml) is on record?
The value was “less than 10%”.

Which “cell survival (colonies vs untreated control)” value (M14 cells [4]; M14 cells, 24 hours treatment) does the source give for `O=CC=Cc1ccccc1` [cinnamaldehyde] here?
The value was 64.3%.

Which “ORR (objective response rate)” value (melanoma) does the source give for `CC(C)(C)c1nc(-c2cccc(NS(=O)(=O)c3c(F)cccc3F)c2F)c(-c2ccnc(N)n2)s1` [dabrafenib] here?
The value was 53%.

What about the “median PFS (progression free survival)” value (melanoma) of the same molecule?
Its value is 5.1 months.

What about the ORR [5] of the same molecule?
The ORR was 47%.
